Experiment [1] has as its target T1, full-length human CHK1 (FL-CHK1) (Homo sapiens, UniProt O14757).
T1 construct: C-terminally His-tagged full-length human CHK1 (FL-CHK1); 6xHis (C); made in house
T1 sequence (O14757 1-476): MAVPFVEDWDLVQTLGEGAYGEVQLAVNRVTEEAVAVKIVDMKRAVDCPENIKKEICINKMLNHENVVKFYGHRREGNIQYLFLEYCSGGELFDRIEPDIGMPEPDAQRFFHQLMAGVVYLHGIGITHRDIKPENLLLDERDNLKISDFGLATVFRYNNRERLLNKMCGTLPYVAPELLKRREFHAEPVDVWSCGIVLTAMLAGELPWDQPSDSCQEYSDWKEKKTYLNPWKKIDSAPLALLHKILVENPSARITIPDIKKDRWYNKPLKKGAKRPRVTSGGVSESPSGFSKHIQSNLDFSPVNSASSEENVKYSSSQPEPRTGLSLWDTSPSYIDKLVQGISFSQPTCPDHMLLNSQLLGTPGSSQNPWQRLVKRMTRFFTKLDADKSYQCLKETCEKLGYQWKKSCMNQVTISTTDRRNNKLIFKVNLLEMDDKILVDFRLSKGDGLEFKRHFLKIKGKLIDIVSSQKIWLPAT
In words: FL-CHK1 assay (coupled spectrophotometric, Syntide-2). The experiment is classed as biochemical. Conditions: FL-CHK1, 0.15 mM ATP. The source says: C-terminally His-tagged full-length human CHK1 (FL-CHK1) was expressed using the baculovirus/insect cell system. It contains 6 histidine residues (6 x His-tag) at the C-terminus of the 476 amino acid human CHK1. The protein was purified by conventional chromatographic techniques.
The production of ADP from ATP that accompanies phosphoryl transfer to the synthetic substrate peptide Syntide-2 (PLARTLSVAGLPGKK) was coupled to oxidation of NADH using phosphoenolpyruvate (PEP) through the actions of pyruvate kinase (PK) and lactic dehydrogenase (LDH). The oxidation of NADH was monitored by following the decrease of absorbance at 340 nm (ε340=6.22 cm^−1 mM^−1) using a HP8452 spectrophotometer. Typical reaction solutions contained: […] PEP; 0.15 mM NADH; 28 units of LDH/mL; 16 units of PK/mL; 3 mM DTT; 0.125 mM Syntide-2; 0.15 mM ATP; 25 mM MgCl2 in 50 mM TRIS, pH 7.5; and 400 mM NaCl. Assays were initiated with 10 nM of FL-CHK1. Ki values were determined by measuring initial enzyme activity in the presence of varying concentrations of test compounds. The data were analyzed using Enzyme Kinetic and Kaleidagraph software. […]

Another experiment concerns CA-46 (lymphoma) cells. Kind of experiment: Whole cell checkpoint abrogation assay (CHK1 Mitotic Index ELISA). The experiment is classed as cell-based. Here is the method:
To examine the in vitro effects of CHK1 inhibitory compounds, an ELISA assay can be designed to monitor the abrogation of DNA damage-induced checkpoint control. The assay can be based on the trapping and detection of mitotic cells following DNA damage-induced arrest.
CA-46 (lymphoma) cells can be treated with a DNA damaging agent, such as camptothecin (Sigma), at 50 nM for 8 hours to induce DNA damage. The control compound or CHK1 inhibitor can be then added at increasing concentrations with Nocodazole (Sigma) at 0.1 μg/ml and plates can be incubated for 16 hours. Control cells, where only CHK1 inhibitors can be added, can be prepared as well to assure that the inhibitors alone have no effect on the cell cycle. The cells can be then harvested, washed with PBS, and crude acid extraction can be performed. Pellets can be resuspended in 80 μl of Acid Extraction Buffer (10 mM Hepes pH 7.9, 1.5 mM MgCl2, 10 mM KCl, 0.5 mM DTT, 1.5 mM PMSF, 0.4N sulfuric acid), vortexed briefly, and incubated for 30 minutes on ice. Samples can be then centrifuged and 75 μl of the supernatant can be transferred to a 96 well flat-bottom plate (VWR 3596). Next 15 μl Neutralizing Cocktail (# of samples×(10 μl 10N NaOH+5 μl 1M Tris Base) can be added to each well, and after mixing, 5 μl of this can be transferred to another 96 well plate with 100 μl 50 mM Tris base (pH 9.6) in each well. Samples can be dried overnight. The wells can be then washed with 200 μl ELISA wash buffer (PBS with 20 mM Tris pH 7.5, 0.05% Tween 20) 5 times and blocked with 200 μl blocking buffer (PBS with 20 mM Tris pH 7.5, 0.05% Tween 20, 3.5% Dry milk, 1.5% BSA. pH to 7.5 after preparation) for 1 hour at room temperature. Following wash and block, anti-phospho Histone H3 antibodies (Upstate USA, Inc., rabbit polyclonal) can be added at 0.5 μg/ml in block (100 μl per well) and incubated for 2 hours at room temperature. Wells can be washed again to remove unbound primary antibody and 100 μl alkaline phosphatase conjugated secondary antibodies at 0.3 mg/ml (Pierce, goat anti-rabbit IgG ([…]+L)) in block can be added for 1 hour at room temp. Wells can be washed 5 times to remove unbound secondary antibody, and washed again 3 times with PBS alone to remove detergents. Then 100 μl alkaline phosphatase substrate (Pierce 1-Step pNPP) can be added to wells. Plates can be protected from light and incubated at room temp for 1 hour. The OD can be read on Molecular Devices Vmax Kinetic Microplate Reader at 405 nm. The ratio of the OD (optical density) of a compound treated sample to the Nocodazole only treated sample (about 100% mitotic or abrogation) can be expressed in a percentage, and quantifies the percent abrogation of the checkpoint. The concentration at which a compound causes 50% abrogation of the checkpoint can be called the EC50. The raw OD values can be graphed in Excel, and an EC50 value can be generated using Kaleidograph software. Strong signal results from Nocodazole only treated cells, and equals 100% mitosis in this assay. Camptothecin+Nocodazole treated control samples have low signal, signifying no mitosis and therefore, no checkpoint abrogation. When potent CHK1 inhibitors are added to Camptothecin treated cells with Nocodazole, a high signal can be generated (generally in a dose dependent manner), due to the checkpoint abrogation activity caused by the combination treatment.

pEC50, pKi: −log10 of the molar value.

For `CN(C)Cc1ccc(Nc2cc(-c3ccc(-c4ccc(O)cc4O)cc3)[nH]n2)cn1` [Example 15, 4′-[5-({6-[(dimethylamino)methyl]pyridin-3-yl}amino)-1H-pyrazol-3-yl]-1,1′-biphenyl-2,4-diol], the pKi in experiment [1] is 8.00 to 9.00. Moreover, in the experiment with CA-46 (lymphoma) cells (concentration causing 50% abrogation of the checkpoint, camptothecin + Nocodazole), the pEC50 is 6.42.

`Oc1ccc(-c2ccc(-c3cc(Nc4ccc(CNC5CC5)nc4)n[nH]3)cc2)c(O)c1` [Example 24, 4′-[5-({6-[(cyclopropylamino)methyl]pyridin-3-yl}amino)-1H-pyrazol-3-yl]-1,1′-biphenyl-2,4-diol] had a pKi in experiment [1] of 8.00 to 9.00. For the same compound, the “percent abrogation of the checkpoint” value in the experiment on CA-46 (lymphoma) cells (@ 1 μM) turned out to be 1% @ 1 μM.
